The values below are quoted from earlier work in patent US11596701B2, “Disinfection method using a disinfection agent formed in situ by reaction of H2O2 and NO2-” (LEIBNIZ-INSTITUT FÜR PLASMAFORSCHUNG UND TECHNOLOGIE E.V., priority 2018, dated 2023).

Like-named read-outs stand apart in the source and are kept apart here.

The conditions of the series: room temperature.

With peroxynitric acid, the half-life result is listed as “about 3 minutes” (Lammel et al., 1990) and “about 10 minutes” (as stated in US 20170172149).
